Measured values published in patent publication US5976523A, “Method for healing compromised tissues using pyrimidine derivatives” (Mitsui Pharmaceuticals, Inc., priority 1995, dated 1999).
Counter-ions that a name gives are not always drawn.

Tests used:
TMK1 cells = assay: TMK1 cell migration in Boyden's chamber; format: cell-based; settings: 4 hours
Method: TMK1 cells, low-differentiating epithelial cells, were treated with trypsin. […] The culture medium in the lower well was then subjected to fixing and staining, and cells which had migrated therein were counted. Experiments were conducted concurrently in three chambers.
Each value will be presented as a mean ±S.D. and with respect to each compound, numbers of cells will be presented in the order of a) control, b) each pyrimidine compound (whose concentration will be specifically indicated), c) 10 ng/ml of EGF, and d) a mixed solution of each pyrimidine compound + EGF.

[1] = system: CAMs (chorioallantoic membranes); assay: Angiogenesis on chorioallantoic membranes (CAM); format: in vivo, chick; settings: for number of new blood vessels (M±SE): day 3
Method: For a bFGF, various assay systems assessing the angiogenesis activity of the bFGF as an index are usable. The shells of chick embryos are fenestrated centrally corresponding to the air spaces thereof, whereby the chorioallantoic membranes (CAMS) are exposed. Solutions of the bFGF and a test medicament at various concentrations were applied onto the respective CAMs. Incubation was continued. Several days later, the degrees of angiogenesis were investigated under a microscope. This method is preferably employed. […] The test medicament is therefore found to be useful for the reduction of a time required for the construction of a skin-equivalent tissue. […] Also with respect to a VEGF, its angiogenesis activity can be assayed in a similar system.
The shells of eggs on the 10th day after fertilization were fenestrated centrally corresponding to air spaces thereof, whereby CAMs (chorioallantoic membranes) were exposed. A nylon film in the form of a square of 3 mm in side was placed over the CAM, and onto the nylon film, a solution of bFGF as a growth and/or differentiation factor or the pyrimidine compound according to the present invention was dropped in an amount of 8 ul. Incubation was continued at 38° C. On the 72nd hour, the eggs were moved to a cool place controlled at 4° C. After the eggs were left over for 2 to 3 hours there, the degree of angiogenesis in each egg was investigated under a microscope. The angiogenesis was determined based on the number of radial blood vessels equal to or larger than 0.1 mm in diameter. Onto the nylon disk placed over the CAMS, 1, 10, and 100 ng/ml solutions of recombinant human bFGF (product of Genzyme Corporation) in physiological saline and 0.01 to 1 mM solutions of the individual pyrimidine compound in physiological saline were applied singly or in combination.

PDGF-A mRNAs = assay: Polysome distribution (translation) of PDGF-A mRNAs in rat SMCs; format: cell-based
Method: SMCs were prepared following the method proposed by Ross and Klebanoff in "J. Cell. […] A rat thoracic aorta was excised. After the tunica externa was peeled off, the tunica media and the tunica intima were minced into 2-3 mm^2. The minced sections were placed standstill in a 25-cm^2 flask which contained Waymouth's MB 752/1 medium containing 10% FBS and 80 ng/ml of gentamycin (product of Schering-Plough Corp.), followed by incubation at 37° C. for 2 to 3 weeks in the presence of 5% carbon dioxide gas (primary culture). The same volume of a trypsin-EDTA solution was added to the flask. After the sections were treated at 37° C. for 5 minutes to peel off cells, the cells were diluted with 10% FBS-Waymouth's MB 752/1 medium and then subcultured (second generation). Subculture was successively conducted likewise whenever the SMC became confluent. In the following experiments, the cells from the 5th generation to the 12th generation were employed. After reach in confluence of cells, the cultured SMCs were cultured for 2 days in a serum-free medium to avoid influence of serum. The SMCs were then added with thrombin (1.0 U/ml) or serotonin (5 μM), followed by incubation at 37° C. for 6 hours under which bring about induction of PDGF-A mRNAs at the maximum. To prevent dissociation of ribosomes and mRNAs, cycloheximide (100 μg/ml) was added 5 minutes before cells were collected. […] Biol. Chem.", 267, 508 ff, 1992 with slight modifications. The cells, which had been collected by the treatment with trypsin, were washed with PBS containing cycloheximide (100 μg/ml). A cell precipitate was then added with 500 μl of a high-salt lysis buffer (20 mM Tris-HCl pH 7.5, 250 mM NaCl, 5 mM MgCl2, 0.1% Noni det P-40, 0.2% DOC) for homogenization. The homogenate was centrifuged under 12,000×g at 4° C. for 10 minutes. The resulting supernatant was added with 67 μl of a heparine mix (7.4 mg/ml heparine, 1.1M NaCl, 15 mM DTT and RNasin). 200 μl of the extract were layered on 5 ml of 0.5-1.25M linear sucrose gradient (which contained 20 mM Tris-HCl pH 7.4, 10 mM NaCl, 3 mM MgCl2), followed by centrifugation under 45,000 rpm for 90 minutes in a "Hitachi […]". While monitoring the absorbance at 260 nm, ten (10) fractions were obtained. […] Subsequent to incubation at 37° C. for 1 hour, each fraction was extracted once with 1/2 volume of phenol, twice with 1/2 volume aliquots of chloroform, and once with the equal volume of chloroform, whereby proteins were removed. The water layer was added with glycogen (20 μg/ml) as a coprecipitant and then with 0.03M of sodium acetate, and RNAs were caused to precipitate with 2 volumes of ethanol. After RNAs were incubated at 65° C. for 5 minutes in a solution containing 60% of formamide, 5.9% of formaldehyde and the equal volume of MOPS buffer (10 mM MOPS pH 7.0, 4 mM NaOAc, 0.5 mM EDTA), electrophoresis was conducted across 1.2% agarose gels containing the equal volume of MOPS buffer so that RNAs were. isolated. After the gel was washed with 20 volumes of SSC, RNAs were blotted overnight to a Gene Screen Plus membrane by the capillary method. Fixing of the RNAs was conducted by exposing them for 1 minute at a distance of 10 cm from […]. Using a "QuickHyb Hybridization Solution" (product of Strategene Ltd.), hybridization was conducted following the instruction manual attached to the solution. Results of autoradiography were quantitated with reference to the NIH Image. […]

skin or muscle cut = assay: Skin/muscle cut-suture rat model; format: in vivo; settings: scanning electron microscope; indicative of the possibility
From the text: As a feature specific to this model, collagen fibers form a plate-like structure so that they cross at right angles with muscle fibers, and macrophages accumulate on the plate-like structure. This plate-like collagen is considered to serve in such a way that it prevents detachment or fraying of both cut ends of muscle fibers and assists formation of an anastomosis.

For CN1Cc2nc(N3CCNCC3)ncc2C1=O [Compound B, 2-piperazino-6-methyl-5-oxo-5,6-dihydro(7H)pyrro[3,4-d]pyrimidine maleate], the “numbers of cells counted (migrated), mean ±S.D.” value (TMK1 cells; compound 1 mM + EGF 10 ng/ml) was 111.2±8.0, the “numbers of cells counted (migrated), mean ±S.D.” value (TMK1 cells; compound alone, 1 mM) was 7.4±3.0 and the “number of new vessels (M±SE)” value ([1]; bFGF (concentration not stated) + 0.01 mM compound) was 8.1±1.1. For the same molecule, the “number of new vessels (M±SE)” value ([1]; bFGF (concentration not stated) + 0.1 mM compound) was 8.5±0.8, the “number of new vessels (M±SE)” value ([1]; bFGF (concentration not stated) + 1 mM compound) was 9.3±0.5 and the “angiogenesis ability of bFGF” value ([1]; bFGF + compound) was “synergistically enhanced”. For the same molecule, the “number of new blood vessels (M±SE)” value ([1]; compound alone 0.01 mM) was 3.5±0.9, the “number of new blood vessels (M±SE)” value ([1]; compound alone 0.1 mM) was 3.4±0.5 and the “number of new blood vessels (M±SE)” value ([1]; compound alone 1 mM) was 4.4±0.7. For the same molecule, the “translation state of 1.3 kb PDGF-A mRNAs” value (PDGF-A mRNAs; compound) was “in a translated form”, the “translation state of 1.7 kb PDGF-A mRNAs” value (PDGF-A mRNAs; compound, serum-free medium) was “converted into a translated form” and the “translation state of PDGF-A mRNAs” value (PDGF-A mRNAs; thrombin + compound) was “converted into a translated form”. For the same molecule, the accumulation of macrophages (skin or muscle cut) was “effectively acts for the promotion of the formation of such plate-like collagen and the accumulation of macrophages” and the “formation of plate-like collagen” value (skin or muscle cut) was “effectively acts for the promotion of the formation of such plate-like collagen”.
